{"source": "paper PMC11900394", "about": "“1-Pyrene Carboxylic Acid: An Internalization Enhancer for Short Oligoarginines” (International Journal of Molecular Sciences, 2025)", "key": {"MDA-MB-231 cells [1]": {"system": "MDA-MB-231 cells", "experiment": "In vitro cytostatic activity, Alamar-blue assay", "type": "cell-based, human", "conditions": "3 h treatment, then 3 days in serum-containing medium, four parallels, two independent experiments, read-out: IC50 ± SD, cytostatic activity", "method": "The in vitro measurements were carried out on 96-well plates containing 5 × 10^3 MDA-MB-231 cells per well. The cells were incubated for 24 h at 37 °C. The measurement started with treating these cells with the solutions of compounds for 3 h, where the final volume was 200 μL. The cytostatic activity was measured on a broad spectrum of concentrations between 0.000128 and 100 μM. Serum-free medium was used on cells for 3 h at 37 °C as control. After treatment, the compounds were washed out using a serum-free medium twice. The cells were then cultured for 72 h in a medium with serum. Alamar-blue (Resazurim) assay was used to determine the ratio of live cells and thus the IC50. Briefly, Alamar-blue solution (22.5 μL, 0.15 mg/mL in PBS (pH = 7)) was added to the cells. Synergy H4 multimode microplate reader (BioTek, Winooski, VT, USA) was used to determine the fluorescence (at λ = 530/30 nm and 610/10 nm) after 4 h incubation. Cytostasis was calculated as Cytostatic effect (%) = [1 − (ODtreated/ODcontrol)] × 100; where ODtreated and ODcontrol correspond to the optical densities of the treated and untreated cells, respectively. […] The curves were defined using MicrocalTM Origin (version 8.0, OriginLab, Northampton, MA, USA) software: cytostasis was plotted as a function of concentration, fitted to a sigmoidal curve, and the IC50 value was determined. […]"}, "MDA-MB-231 cells [2]": {"system": "MDA-MB-231 cells", "experiment": "Intracellular localization by confocal laser scanning microscopy", "type": "cell-based, human", "conditions": "MDA-MB-231, 5 μM, 15, 45 and 90 min; CLSM"}, "MDA-MB-231 cells [3]": {"system": "MDA-MB-231 cells", "conditions": "ref [31], read-out: IC50, cytostatic activity; cited from earlier work", "text": "Table 2 The cytostatic activity of peptide-drug conjugates on MDA-MB-231. | column: IC50 ± SD (µM) * / MDA-MB-231"}}, "note": "Like-named read-outs stand apart in the source and are kept apart here. Numbered stars: 1 amine (or outer) side, 2 acyl side, 3 side chain; on linkers, the order of the positions; unused ones are H or OH. Side chains are listed from the residue outwards. Peptide text beside a SMILES is read from it. * marks the point of attachment. Daunorubicin = COc1cccc2c1C(=O)c1c(O)c3c(c(O)c1C2=O)C[C@@](O)(C(C)=O)C[C@@H]3O[C@H]1C[C@H](N*)[C@H](O)[C@H](C)O1; 1Pyrenoyl = O=C(c1ccc2ccc3cccc4ccc1c2c34)*; Suc = O=C(CCC(=O)[*:2])[*:1]"}
{"compound": "COc1cccc2c1C(=O)c1c(O)c3c(c(O)c1C2=O)C[C@@](O)(C(C)=O)C[C@@H]3O[C@H]1C[C@H](NC(=O)CCC(=O)NCCCC[C@H](NC(=O)[C@H](CCCNC(=N)N)NC(=O)[C@H](CCCNC(=N)N)NC(=O)[C@H](CCCNC(=N)N)NC(=O)[C@H](CCCNC(=N)N)NC(=O)[C@H](CCCNC(=N)N)NC(=O)[C@H](CCCNC(=N)N)NC(=O)[C@H](CCCNC(=N)N)NC(=O)[C@H](CCCNC(=N)N)NC(=O)c2ccc3ccc4cccc5ccc2c3c45)C(N)=O)[C@H](O)[C@H](C)O1", "note": "[PCA-Arg8-Lys(DauSuc)]", "values": [{"measurement": "IC50", "setting": "MDA-MB-231 cells [1]", "result": "28.1 ± 7.5", "unit": "µM"}]}
{"compound": "COc1cccc2c1C(=O)c1c(O)c3c(c(O)c1C2=O)C[C@@](O)(C(C)=O)C[C@@H]3O[C@H]1C[C@H](NC(=O)CCC(=O)NCCCC[C@H](NC(=O)[C@H](CCCNC(=N)N)NC(=O)[C@H](CCCNC(=N)N)NC(=O)[C@H](CCCNC(=N)N)NC(=O)[C@H](CCCNC(=N)N)NC(=O)[C@H](Cc2c[nH]c3ccccc23)NC(=O)c2ccc3ccc4cccc5ccc2c3c45)C(N)=O)[C@H](O)[C@H](C)O1", "note": "[PCA-Trp-Arg4-Lys(DauSuc)] (1Pyrenoyl-WRRRRK([Suc-Daunorubicin])-NH2)", "values": [{"measurement": "Internalization of DauSuc conjugates (Dau fluorescence)", "setting": "MDA-MB-231 cells [2]", "result": "very efficient internalization"}]}
{"compound": "succinylated daunomycin [DauSuc]", "values": [{"measurement": "IC50", "setting": "MDA-MB-231 cells [3]", "result": "> 100", "unit": "µM"}]}
{"compound": "COc1cccc2c1C(=O)c1c(O)c3c(c(O)c1C2=O)C[C@@](O)(C(C)=O)C[C@@H]3O[C@H]1C[C@H](NC(=O)CCC(=O)N[C@@H](CCCNC(=N)N)C(=O)N[C@@H](CCCNC(=N)N)C(=O)N[C@@H](CCCNC(=N)N)C(=O)N[C@@H](CCCNC(=N)N)C(=O)N[C@@H](CCCNC(=N)N)C(=O)N[C@@H](CCCNC(=N)N)C(=O)N[C@@H](CCCNC(=N)N)C(=O)N[C@@H](CCCNC(=N)N)C(=O)N[C@@H](CCCCNC(=O)c2ccc3ccc4cccc5ccc2c3c45)C(N)=O)[C@H](O)[C@H](C)O1", "note": "[DauSuc-Arg8-Lys(PCA)]", "values": [{"measurement": "IC50", "setting": "MDA-MB-231 cells [1]", "result": "23.7 ± 4.3", "unit": "µM"}]}
